We go through 18 molecules from patent publication US20190010158A1, “ANTITUMOR EFFECT POTENTIATOR COMPRISING PYRROLOPYRIMIDINE COMPOUND” (TAIHO PHARMACEUTICAL CO., LTD, priority 2015, published 2019).

Structures are written as SMILES. “And” between values parts separate entries of the source, which are not always exact repeats. Equal entries are not always repeated. Where two headings read alike, the source gives them in different places.

The test system of assay [1] is tumor cell lines shown in Table 42. The experiment in a line: Example 11: combined use with antimetabolite, cell growth inhibition test (IC50 ratio, CI). The assay is classed as cell-based.
The target of assay [2] is T1, NAE (heterodimer of APPBP1 and UBA3) (Homo sapiens, UniProt Q8TBC4).
T1 construct: amino acids 1 to 463 of human UBA3 protein; made in house; host or cells: Sf9 insect cells (baculovirus co-infection) for NAE; E. coli BL21 (DE3) for GST-UBC12
T1 sequence (Q8TBC4 1-463): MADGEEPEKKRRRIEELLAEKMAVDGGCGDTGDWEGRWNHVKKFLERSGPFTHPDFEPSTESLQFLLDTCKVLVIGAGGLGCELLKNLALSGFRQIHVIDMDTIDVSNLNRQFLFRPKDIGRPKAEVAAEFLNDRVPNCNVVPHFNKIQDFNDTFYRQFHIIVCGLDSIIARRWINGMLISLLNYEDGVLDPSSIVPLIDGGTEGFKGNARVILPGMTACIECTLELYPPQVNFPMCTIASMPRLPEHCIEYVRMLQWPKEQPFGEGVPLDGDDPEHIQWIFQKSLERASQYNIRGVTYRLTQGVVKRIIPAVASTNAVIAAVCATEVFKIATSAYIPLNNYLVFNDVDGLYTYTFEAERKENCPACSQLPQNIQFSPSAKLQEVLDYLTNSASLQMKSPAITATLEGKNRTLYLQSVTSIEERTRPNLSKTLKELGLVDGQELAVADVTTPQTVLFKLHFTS
T1 sequence (Q13564 1-534 partner): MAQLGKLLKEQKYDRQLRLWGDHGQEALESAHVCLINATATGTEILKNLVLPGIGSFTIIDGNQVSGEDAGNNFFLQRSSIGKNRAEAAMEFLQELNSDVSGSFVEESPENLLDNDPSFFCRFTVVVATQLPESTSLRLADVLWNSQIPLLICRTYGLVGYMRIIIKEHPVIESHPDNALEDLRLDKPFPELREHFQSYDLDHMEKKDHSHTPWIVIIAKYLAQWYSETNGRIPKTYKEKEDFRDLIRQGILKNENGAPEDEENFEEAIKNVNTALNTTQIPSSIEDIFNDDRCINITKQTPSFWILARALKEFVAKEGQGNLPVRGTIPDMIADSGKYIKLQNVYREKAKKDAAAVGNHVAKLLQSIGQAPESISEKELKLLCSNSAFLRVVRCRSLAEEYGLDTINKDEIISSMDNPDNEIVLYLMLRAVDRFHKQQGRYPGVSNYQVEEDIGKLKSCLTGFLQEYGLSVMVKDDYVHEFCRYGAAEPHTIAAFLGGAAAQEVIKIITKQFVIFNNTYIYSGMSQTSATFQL
Nature of the assay: Nedd8 conjugation inhibitory activity (AlphaScreen). The assay is classed as biochemical. Conditions: purified NAE, GST-UBC12, ATP, Biotin-Nedd8, reaction 90 minutes.

Assay [3] relates to human acute T lymphoblastic leukemia CCRF-CEM cell lines. The experiment in a line: Cell growth inhibition 1 (CellTiter-Glo). The assay is classed as cell-based. The following applies: culture with test compound 72 hours.
The mark [4] stands for this setting: A431, IC50 of Reference Example Compound 55 : IC50 of other compound = 1:value.
[5] abbreviates: A431, combined use with Reference Example Compound 55.

Consider `Nc1ccn([C@@H]2O[C@H](CO)[C@@H](O)C2(F)F)c(=O)n1` [Gemcitabine, gemcitabine], for which the “IC50 Ratio” value in assay [1] (setting [4]) was found to be 0.01. The CI is on record as 0.70 in assay [1] (A431, Reference Example Compound 55:other compound 1:0.007, at ED50) and 0.49 in assay [1] (A431, Reference Example Compound 55:other compound 1:0.02, at ED50). In addition, the “Comprehensive Evaluation” value in assay [1] (setting [5]) is “Synergism (0.3-0.7)”. Take `Nc1nc2[nH]cc(CCc3ccc(C(=O)N[C@@H](CCC(=O)O)C(=O)O)cc3)c2c(=O)[nH]1` [Pemetrexed, pemetrexed]: in assay [1], the CI was 0.73 and 0.55; the “Comprehensive Evaluation” value is given as “Moderate”; the “IC50 Ratio” value was 34.

The molecule `CS(=O)(=O)c1ccccc1C#Cc1cn([C@@H]2O[C@H](CNS(N)(=O)=O)[C@@H](O)[C@H]2O)c2ncnc(N)c12` [Reference Example 22, 4-Amino-7-[(2R,3R,4S,5R)-3,4-dihydroxy-5-[(sulfamoylamino)methyl]tetrahydrofuran-2-yl]-5-[2-(2-methylsulfonylphenyl)ethynyl]pyrrolo[2,3-d]pyrimidine] returned a half-maximal inhibitory concentration (IC50) in assay [2] of no more than 0.003 µM. Same read-out and setting: as for `Nc1ncnc2c1c(C#Cc1c(F)cc(N3CCOCC3)cc1F)cn2[C@@H]1O[C@H](CNS(N)(=O)=O)[C@@H](O)[C@H]1O` [Reference Example 23, 4-[4-[2-[4-Amino-7-[(2R,3R,4S,5R)-3,4-dihydroxy-5-[(sulfamoylamino)methyl]tetrahydrofuran-2-yl]pyrrolo[2,3-d]pyrimidin-5-yl]ethynyl]-3,5-difluoro-phenyl]morpholine], the figure is no more than 0.003 µM; as for `Nc1cc(F)c(C#Cc2cn([C@@H]3O[C@H](CNS(N)(=O)=O)[C@@H](O)[C@H]3O)c3ncnc(N)c23)c(F)c1` [Reference Example 24, 4-Amino-5-[2-(4-amino-2,6-difluoro-phenyl)ethynyl]-7-[(2R,3R,4S,5R)-3,4-dihydroxy-5-[(sulfamoylamino)methyl]tetrahydrofuran-2-yl]pyrrolo[2,3-d]pyrimidine], no more than 0.003 µM. Take `Nc1ncnc2c1c(C#Cc1c(F)cc(N3CCCC3=O)cc1F)cn2[C@@H]1O[C@H](CNS(N)(=O)=O)[C@@H](O)[C@H]1O` [Reference Example 33, 4-Amino-5-[2-[2,6-difluoro-4-(2-oxopyrrolidin-1-yl)phenyl]ethynyl]-7-[(2R,3R,4S,5R)-3,4-dihydroxy-5-[(sulfamoylamino)methyl]tetrahydrofuran-2-yl]pyrrolo[2,3-d]pyrimidine]: the IC50 in assay [2] is no more than 0.003 µM; in assay [3] it was 37 nM. With `Nc1ncnc2c1c(C#Cc1c(F)cc(N3CC(O)C3)cc1F)cn2[C@@H]1O[C@H](CNS(N)(=O)=O)[C@@H](O)[C@H]1O` [Reference Example 39, 4-Amino-5-[2-[2,6-difluoro-4-(3-hydroxyazetidin-1-yl)phenyl]ethynyl]-7-[(2R,3R,4S,5R)-3,4-dihydroxy-5-[(sulfamoylamino)methyl]tetrahydrofuran-2-yl]pyrrolo[2,3-d]pyrimidine], the IC50 in assay [2] was no more than 0.003 µM; in assay [3], 7.8 nM. Regarding `Nc1ncnc2c1c(C#Cc1c(F)cc(N3CCC[C@@H](O)C3)cc1F)cn2[C@@H]1O[C@H](CNS(N)(=O)=O)[C@@H](O)[C@H]1O` [Reference Example 40, 4-Amino-5-[2-[2,6-difluoro-4-[(3R)-3-hydroxy-1-piperidyl]phenyl]ethynyl]-7-[(2R,3R,4S,5R)-3,4-dihydroxy-5-[(sulfamoylamino)methyl]tetrahydrofuran-2-yl]pyrrolo[2,3-d]pyrimidine], the IC50 in assay [2] was no more than 0.003 µM; in assay [3], 19 nM. For `Nc1ncnc2c1c(C#Cc1c(F)cc(N3CCC(C(=O)O)C3)cc1F)cn2[C@@H]1O[C@H](CNS(N)(=O)=O)[C@@H](O)[C@H]1O` (stereo partly drawn) [Reference Example 41, 1-[4-[2-[4-amino-7-[(2R,3R,4S,5R)-3,4-dihydroxy-5-[(sulfamoylamino)methyl]tetrahydrofuran-2-yl]pyrrolo[2,3-d]pyrimidin-5-yl]ethynyl]-3,5-difluoro-phenyl]pyrrolidine-3-carboxylic Acid], in assay [2], the IC50 is no more than 0.003 µM. The same measure, in the same setting: to `CCOc1cccc(F)c1C#Cc1cn([C@@H]2O[C@H](CNS(N)(=O)=O)[C@@H](O)[C@H]2O)c2ncnc(N)c12` [Reference Example 55, 4-Amino-7-[(2R,3R,4S,5R)-3,4-dihydroxy-5-[(sulfamoylamino)methyl]tetrahydrofuran-2-yl]-5-[2-(2-ethoxy-6-fluoro-phenyl)ethynyl]pyrrolo[2,3-d]pyrimidine] belongs no more than 0.003 µM; to `COC(=O)c1cc(F)c(C#Cc2cn([C@@H]3O[C@H](CNS(N)(=O)=O)[C@@H](O)[C@H]3O)c3ncnc(N)c23)c(F)c1` [Reference Example 58, Methyl 4-[2-[4-amino-7-[(2R,3R,4S,5R)-3,4-dihydroxy-5-[(sulfamoylamino)methyl]tetrahydrofuran-2-yl]pyrrolo[2,3-d]pyrimidin-5-yl]ethynyl]-3,5-difluoro-benzoate], no more than 0.003 µM. In the case of `Nc1ncnc2c1c(C#Cc1c(F)cc(N3CCS(=O)(=O)CC3)cc1F)cn2[C@@H]1O[C@H](CNS(N)(=O)=O)[C@@H](O)[C@H]1O` [Reference Example 74, 4-[4-[2-[4-amino-7-[(2R,3R,4S,5R)-3,4-dihydroxy-5-[(sulfamoylamino)methyl]tetrahydrofuran-2-yl]pyrrolo[2,3-d]pyrimidin-5-yl]ethynyl]-3,5-difluoro-phenyl]-1,1-dioxo-1,4-thiazinane], the 50% inhibitory concentration (IC50) in assay [2] was no more than 0.003 µM; in assay [3] it was 160 nM. `CCS(=O)(=O)c1cc(N2CC[C@@H](F)C2)cc(F)c1C#Cc1cn([C@@H]2O[C@H](CNS(N)(=O)=O)[C@@H](O)[C@H]2O)c2ncnc(N)c12` [Reference Example 75, 4-Amino-7-[(2R,3R,4S,5R)-3,4-dihydroxy-5-[(sulfamoylamino)methyl]tetrahydrofuran-2-yl]-5-[2-[2-ethylsulfonyl-6-fluoro-4-[(3R)-3-fluoropyrrolidin-1-yl]phenyl]ethynyl]pyrrolo[2,3-d]pyrimidine]: in assay [2], the IC50 was no more than 0.003 µM. For the molecule `COc1ccc(C#Cc2cn([C@@H]3C[C@H](CNS(N)(=O)=O)[C@@H](O)[C@H]3O)c3ncnc(N)c23)c(S(C)(=O)=O)c1` [Reference Example 113, 4-Amino-7-[(1R,2S,3R,4R)-2,3-dihydroxy-4-[(sulfamoylamino)methyl]cyclopentyl]-5-[2-(4-methoxy-2-methylsulfonyl-phenyl)ethynyl]pyrrolo[2,3-d]pyrimidine], the IC50 in assay [2] is no more than 0.003 µM. `CCS(=O)(=O)c1cc(N2CCCC2)cc(F)c1C#Cc1cn([C@@H]2C[C@H](CNS(N)(=O)=O)[C@@H](O)[C@H]2O)c2ncnc(N)c12` [Reference Example 114, 4-Amino-7-[(1R,2S,3R,4R)-2,3-dihydroxy-4-[(sulfamoylamino)methyl]cyclopentyl]-5-[2-(2-ethylsulfonyl-6-fluoro-4-pyrrolidin-1-yl-phenyl)ethynyl]pyrrolo[2,3-d]pyrimidine] registered a half-maximal inhibitory concentration (IC50) in assay [2] of no more than 0.003 µM. Regarding `CCOc1cccc(F)c1C#Cc1cn([C@@H]2C=C(CNS(N)(=O)=O)[C@@H](O)[C@H]2O)c2ncnc(N)c12` [Reference Example 129, 4-Amino-7-[(1R,4R,5S)-4,5-dihydroxy-3-[(sulfamoylamino)methyl]cyclopent-2-en-1-yl]-5-[2-(2-ethoxy-6-fluoro-phenyl)ethynyl]pyrrolo[2,3-d]pyrimidine], the IC50 in assay [2] is no more than 0.003 µM; in assay [3], 2.1 nM. As for `Nc1ncnc2c1c(C#Cc1ccccc1)cn2[C@@H]1O[C@H](COS(N)(=O)=O)[C@@H](O)[C@H]1O` [Reference Example 131, [(2R,3S,4R,5R)-5-[4-amino-5-(2-phenylethynyl)pyrrolo[2,3-d]pyrimidin-7-yl]-3,4-dihydroxy-tetrahydrofuran-2-yl]methyl sulfamate], in assay [2], the IC50 is no more than 0.003 µM.

Turning to `O=c1[nH]c(=O)n([C@H]2C[C@H](O)[C@@H](CO)O2)cc1C(F)(F)F` [Trifluridine, trifluridine], the “IC50 Ratio” value in assay [1] (setting [4]) turned out to be 0.5. The CI is recorded as 1.06 in assay [1] (A431, Reference Example Compound 55:other compound 1:0.33, at ED50) and 0.74 in assay [1] (A431, Reference Example Compound 55:other compound 1:1, at ED50). Moreover, in assay [1] (setting [5]), the “Comprehensive Evaluation” value is “Additive (0.9-1.10)”.
